Assay results: ChEMBL document CHEMBL4270535, “Facile synthesis of vanillin-based novel bischalcones identifies one that induces apoptosis and displays synergy with Artemisinin in killing chloroquine resistant Plasmodium falciparum” (Eur J Med Chem, 2018)
Active and inactive are the calls of the source. The rule behind the calls is not given here.

How the values were obtained:
[1] = Selectivity index, ratio of IC50 for human HeLa cells to IC50 for synchronized ring stage of chloroquine-sensitive Plasmodium falciparum 3D7 infected in human erythrocytes; format: toxicity, cell-based; details: read-out: Ratio IC50
[2] = Resistance index, ratio of IC50 for synchronized ring stage of chloroquine-resistant Plasmodium falciparum Dd2 infected in human erythrocytes to IC50 for synchronized ring stage of chloroquine-sensitive Plasmodium falciparum 3D7 infected in human erythrocytes; format: functional
[3] = test system: Plasmodium falciparum; assay: Antiplasmodial activity against synchronized ring stage of chloroquine-resistant Plasmodium falciparum INDO infected in human erythrocytes after 48 hrs by SYBR Green 1 dye based fluorescence assay; format: functional, organism-based
[4] = Selectivity index, ratio of IC50 for mouse L929 cells to IC50 for synchronized ring stage of chloroquine-sensitive Plasmodium falciparum 3D7 infected in human erythrocytes; format: toxicity, cell-based; details: read-out: Ratio IC50
[5] = test system: Plasmodium falciparum; assay: Antiplasmodial activity against synchronized ring stage of chloroquine-sensitive Plasmodium falciparum 3D7 infected in human erythrocytes after 48 hrs by SYBR Green 1 dye based fluorescence assay; format: functional, organism-based; details: 3D7, 48 h
[6] = test system: Plasmodium falciparum; assay: Antiplasmodial activity against synchronized ring stage of chloroquine-resistant Plasmodium falciparum Dd2 infected in human erythrocytes after 48 hrs by SYBR Green 1 dye based fluorescence assay; format: functional, organism-based; details: Dd2, 48 h
[7] = Resistance index, ratio of IC50 for synchronized ring stage of chloroquine-resistant Plasmodium falciparum INDO infected in human erythrocytes to IC50 for synchronized ring stage of chloroquine-sensitive Plasmodium falciparum 3D7 infected in human erythrocytes; format: functional
[8] = test system: Plasmodium falciparum; assay: (§1) Synergistic antiplasmodial activity against synchronized ring stage of chloroquine-resistant Plasmodium falciparum INDO infected in human erythrocytes assessed as parasite growth inhibition at FIC90 treated for 6 to 48 hrs followed by compound wash out measured after 48 to 90 hrs in presence of artemisinin by Giemsa staining based microscopic analysis; format: functional, organism-based
[9] = test system: Plasmodium falciparum; assay: (§2) Synergistic plasmodicidal activity against synchronized trophozoite stage of chloroquine-resistant Plasmodium falciparum INDO infected in human erythrocytes assessed as parasite killing at FIC90 treated for 18 to 24 hrs followed by compound wash out measured after 48 to 54 hrs followed by compound wash out measured after 48 to 54 hrs in presence of chloroquine by Giemsa staining based microscopic analysis; format: functional, organism-based
[10] = test system: Plasmodium falciparum; assay: (§3) Plasmodicidal activity against synchronized schizont stage of chloroquine-resistant Plasmodium falciparum INDO infected in human erythrocytes assessed as parasite killing at 8 uM treated for 12 hrs followed by compound wash out measured after 48 hrs by Giemsa staining based microscopic analysis; format: functional, organism-based
[11] = test system: Plasmodium falciparum; assay: as §1, with “2 times FIC100” for “FIC90”, “chloroquine” for “artemisinin”; format: functional, organism-based
[12] = test system: Plasmodium falciparum; assay: Antiplasmodial activity against synchronized schizont stage of chloroquine-resistant Plasmodium falciparum INDO infected in human erythrocytes assessed as parasite growth inhibition at 8 uM treated for 12 hrs by Giemsa staining based microscopic analysis; format: functional, organism-based
[13] = test system: Plasmodium falciparum; assay: as §1, with “schizont” for “ring”, “12” for “6 to 48”, “48” for “48 to 90”, “chloroquine” for “artemisinin”; format: functional, organism-based
[14] = test system: Plasmodium falciparum; assay: as §3, with “ring” for “schizont”, “6 to 48” for “12”, “48 to 90” for “48”; format: functional, organism-based
[15] = test system: Plasmodium falciparum; assay: as §3, with “trophozoite” for “schizont”, “18 to 24” for “12”, “48 to 54” for “48”; format: functional, organism-based
[16] = test system: Plasmodium falciparum; assay: Synergistic antiplasmodial activity against synchronized ring stage of chloroquine-sensitive Plasmodium falciparum 3D7 infected in human erythrocytes assessed as FIC index in presence of chloroquine; format: functional
[17] = test system: Plasmodium falciparum; assay: (§4) Synergistic plasmodicidal activity against synchronized ring stage of chloroquine-resistant Plasmodium falciparum INDO infected in human erythrocytes assessed as parasite killing at FIC90 treated for 6 to 48 hrs followed by compound wash out measured after 48 to 90 hrs followed by compound wash out measured after 48 to 90 hrs in presence of artemisinin by Giemsa staining based microscopic analysis; format: functional, organism-based
[18] = test system: Plasmodium falciparum; assay: Induction of apoptosis in synchronized trophozoite stage of chloroquine-resistant Plasmodium falciparum INDO infected in human erythrocytes assessed as chromatin fragmentation at 8 uM after 24 hrs by agarose gel electrophoresis method; format: functional, organism-based
[19] = test system: Plasmodium falciparum; assay: Induction of apoptosis in synchronized trophozoite stage of chloroquine-resistant Plasmodium falciparum INDO infected in human erythrocytes assessed as parasite killing at 8 uM up to 24 hrs by Giemsa staining based microscopic analysis; format: functional, organism-based
[20] = test system: Plasmodium falciparum; assay: as §1, with “chloroquine” for “artemisinin”; format: functional, organism-based
[21] = test system: Plasmodium falciparum; assay: Synergistic antiplasmodial activity against synchronized ring stage of chloroquine-sensitive Plasmodium falciparum 3D7 infected in human erythrocytes assessed as ratio of IC50 in absence of artemisinin to IC50 in presence of artemisinin; format: functional
[22] = test system: Plasmodium falciparum; assay: (§5) Induction of apoptosis in synchronized trophozoite stage of chloroquine-resistant Plasmodium falciparum INDO infected in human erythrocytes assessed as translocation of phosphatidylserine from inner to outer leaflet of plasma membrane at 8 uM after 12 hrs by Annexin-V/Alexa fluor-488 staining based fluorescence microscopic analysis; format: functional, organism-based
[23] = test system: Plasmodium falciparum; assay: Synergistic antiplasmodial activity against synchronized ring stage of chloroquine-resistant Plasmodium falciparum INDO infected in human erythrocytes assessed as FIC index in presence of chloroquine; format: functional
[24] = test system: Plasmodium falciparum; assay: as §2, with “killing at 2 times FIC100 treated for” for “killing at FIC90 treated for”, “presence of artemisinin by Giemsa” for “presence of chloroquine by Giemsa”; format: functional, organism-based
[25] = test system: Plasmodium falciparum; assay: as §2, with “antiplasmodial” for “plasmodicidal”, “growth inhibition” for “killing”, “24” for “24 hrs followed by compound wash out measured after 48 to 54”; format: functional, organism-based
[26] = test system: Plasmodium falciparum; assay: as §4, with “chloroquine” for “artemisinin”; format: functional, organism-based
[27] = test system: Plasmodium falciparum; assay: as §5, with “flow cytometry” for “fluorescence microscopic analysis”; format: functional, organism-based
[28] = test system: Plasmodium falciparum; assay: Antiplasmodial activity against synchronized trophozoite stage of chloroquine-resistant Plasmodium falciparum INDO infected in human erythrocytes assessed as parasite growth inhibition at 8 uM treated for 18 to 24 hrs by Giemsa staining based microscopic analysis; format: functional, organism-based
[29] = test system: Plasmodium falciparum; assay: Synergistic antiplasmodial activity against synchronized ring stage of chloroquine-sensitive Plasmodium falciparum 3D7 infected in human erythrocytes assessed as FIC index in presence of artemisinin; format: functional
[30] = test system: Plasmodium falciparum; assay: Induction of apoptosis in synchronized trophozoite stage of chloroquine-resistant Plasmodium falciparum INDO infected in human erythrocytes assessed as activation of caspase-like protease at 8 uM after 12 hrs by Caspase FITC-VAD-FMK substrate based fluorescence microscopic analysis; format: functional, organism-based
[31] = test system: Plasmodium falciparum; assay: Antiplasmodial activity against synchronized ring stage of chloroquine-resistant Plasmodium falciparum INDO infected in human erythrocytes assessed as parasite growth inhibition at 8 uM treated for 6 to 48 hrs by Giemsa staining based microscopic analysis; format: functional, organism-based
[32] = test system: Plasmodium falciparum; assay: as §1, with “schizont” for “ring”, “12” for “6 to 48”, “48” for “48 to 90”; format: functional, organism-based
[33] = test system: Plasmodium falciparum; assay: Induction of mitochondrial membrane potential loss in synchronized trophozoite stage of chloroquine-resistant Plasmodium falciparum INDO infected in human erythrocytes at 8 uM after 18 to 24 hrs by fluorescence microscopic analysis; format: functional, organism-based
[34] = test system: Plasmodium falciparum; assay: Induction of apoptosis in synchronized trophozoite stage of chloroquine-resistant Plasmodium falciparum INDO infected in human erythrocytes assessed as chromatin fragmentation at 8 uM by Hoechst 33342 staining based fluorescence microscopic analysis; format: functional, organism-based; details: TDE = time-dependent effect
[35] = test system: Plasmodium falciparum; assay: as §4, with “2 times FIC100” for “FIC90”; format: functional, organism-based
[36] = test system: Plasmodium falciparum; assay: as §4, with “schizont” for “ring”, “2 times FIC100” for “FIC90”, “12” for “6 to 48”, “48” for “48 to 90 hrs followed by compound wash out measured after 48 to 90”; format: functional, organism-based
[37] = test system: Plasmodium falciparum; assay: as §1, with “synchronized trophozoite” for “synchronized ring”, “for 18” for “for 6”, “to 24” for “to 48”, “to 54” for “to 90”; format: functional, organism-based
[38] = test system: Plasmodium falciparum; assay: as §2, with “presence of artemisinin by Giemsa” for “presence of chloroquine by Giemsa”; format: functional, organism-based
[39] = test system: Plasmodium falciparum; assay: Induction of apoptosis in synchronized trophozoite stage of chloroquine-resistant Plasmodium falciparum INDO infected in human erythrocytes assessed as activation of caspase-like protease at 8 uM after 12 hrs by Caspase FITC-VAD-FMK substrate based flow cytometry; format: functional, organism-based
[40] = test system: Plasmodium falciparum; assay: Synergistic antiplasmodial activity against synchronized ring stage of chloroquine-resistant Plasmodium falciparum INDO infected in human erythrocytes assessed as FIC index in presence of artemisinin; format: functional
[41] = test system: Plasmodium falciparum; assay: as §2, with “antiplasmodial” for “plasmodicidal”, “growth inhibition” for “killing”, “2 times FIC100” for “FIC90”, “24” for “24 hrs followed by compound wash out measured after 48 to 54”; format: functional, organism-based
[42] = test system: Plasmodium falciparum; assay: as §1, with “schizont” for “ring”, “2 times FIC100” for “FIC90”, “12” for “6 to 48”, “48” for “48 to 90”, “chloroquine” for “artemisinin”; format: functional, organism-based

With C=CCOc1ccc(C(=O)/C=C/c2cc(OC)c(OCC=C)c(-c3cc(/C=C/C(=O)c4ccc(OCC=C)cc4)cc(OC)c3OCC=C)c2)cc1 the selectivity ratio [1] was > 100, the “Ratio IC50” value [2] was 8.3 and the IC50 [3] was > 50 µM. The selectivity ratio [4] was > 100, the IC50 [5] was 2 µM and the IC50 [6] was 16.6 µM. The “Ratio IC50” value [7] was >25.

In the case of C=CCOc1ccc(/C=C/C(=O)c2cccc(C(=O)/C=C/c3ccc(OCC=C)c(OCC=C)c3)c2)cc1OCC=C, the selectivity ratio [1] is reported as > 5.6, the “Ratio IC50” value [2] is reported as 1.05 and the IC50 [3] is reported as 13.7 µM. The selectivity ratio [4] was > 5.6, the IC50 [5] was 18 µM and the IC50 [6] was 18.9 µM. The “Ratio IC50” value [7] was 0.76.

With COc1cc(/C=C/C(=O)c2ccccc2)cc(-c2cc(/C=C/C(=O)c3ccccc3)cc(OC)c2OC)c1OC the selectivity ratio [1] was 12.4, the “Ratio IC50” value [2] was 0.4 and the IC50 [3] was 3.7 µM. The selectivity ratio [4] was 1.1, the IC50 [5] was 9.3 µM and the IC50 [6] was 3.7 µM. For the same compound, the “Ratio IC50” value [7] was 0.4.

In the case of C=CCOc1c(OC)cc(/C=C/C(=O)c2cc3ccccc3oc2=O)cc1-c1cc(/C=C/C(=O)c2cc3ccccc3oc2=O)cc(OC)c1OCC=C, the IC50 [5] is reported as 18.4 µM.

In the case of C=CCOc1c(OC)cc(/C=C/C(=O)c2ccccc2)cc1-c1cc(/C=C/C(=O)c2ccccc2)cc(OC)c1OCC=C, the selectivity ratio [1] is reported as > 28.6, the “Ratio IC50” value [2] is reported as 0.3 and the IC50 [3] is reported as 3.5 µM. It also gave a selectivity ratio [4] of 7.1, an IC50 [5] of 7 µM and an IC50 [6] of 2.1 µM. The “Ratio IC50” value [7] was 0.5.

With C=CCOc1c(OC)cc(/C=C/C(=O)c2cc(OC)c(OC)c(OC)c2)cc1-c1cc(/C=C/C(=O)c2cc(OC)c(OC)c(OC)c2)cc(OC)c1OCC=C the selectivity ratio [1] was > 36.4, the “Ratio IC50” value [2] was 0.3 and the IC50 [3] was 2.2 µM. For the same compound, the selectivity ratio [4] was > 36.4, the IC50 [5] was 5.5 µM and the IC50 [6] was 1.7 µM. The “Ratio IC50” value [7] was 0.4.

For C=CCc1cc(/C=C/C(=O)c2cccc(C(=O)/C=C/c3cc(CC=C)c(OC)c(OC)c3)c2)cc(OC)c1OC, the Activity [8] was “Active”, the Activity [9] was “inactive” and the Activity [10] was “Active”. For the same compound, the Activity [11] was “Active”, the selectivity ratio [1] was 11.2 and the Activity [12] was “Active”. For the same compound, the Activity [13] was “Active”, the Activity [14] was “Active” and the Activity [15] was “Active”. The “fractional inhibitory concentration index (FICI)” value [16] was 1.38 - 3.34, the Activity [17] was “inactive” and the Activity [18] was “Active”. The “Ratio IC50” value [2] was 1.4, the Activity [19] was “Active” and the Activity [20] was “Active”. For the same compound, the “Ratio IC50” value [21] was 20 - 311, the Activity [22] was “Active” and the IC50 [3] was 3.8 µM. For the same compound, the “fractional inhibitory concentration index (FICI)” value [23] was 0.7 - 1.23, the Activity [24] was “inactive” and the selectivity ratio [4] was 8.8. The IC50 [5] was 2.5 µM, the IC50 [6] was 3.5 µM and the Activity [25] was “Active”. For the same compound, the Activity [26] was “inactive”, the Activity [27] was “Active” and the Activity [28] was “Active”. The “fractional inhibitory concentration index (FICI)” value [29] was 1.33 - 1.58, the Activity [30] was “Active” and the Activity [31] was “Active”. The “Ratio IC50” value [7] was 1.5, the Activity [32] was “Active” and the Activity [33] was “Active”. For the same compound, the Activity [34] was “Tde”, the Activity [35] was “Active” and the Activity [36] was “inactive”. For the same compound, the Activity [37] was “Active”, the Activity [38] was “inactive” and the Activity [39] was “Active”. The “fractional inhibitory concentration index (FICI)” value [40] was 0.46 - 0.58, the Activity [41] was “Active” and the Activity [42] was “Active”.

For C=CCOc1ccc(C(=O)/C=C/c2cc(OC)c(OCC=C)c(-c3cc(/C=C/C(=O)c4ccc(OCC=C)cc4OCC=C)cc(OC)c3OCC=C)c2)c(OCC=C)c1, the IC50 [5] was 63 µM.
